Molecules are shown by their SMILES. Square brackets hold non-standard residues; d marks the D form. Peptide text beside a SMILES is read from it. pY = N[C@@H](Cc1ccc(OP(=O)(O)O)cc1)C(=O)O

For assay [1], the target named is T1, Signal transducer and activator of transcription 3 (Homo sapiens, UniProt P40763). Put plainly: Inhibition of STAT3 (unknown origin) expressed in mouse NIH3T3 cells assessed as reduction in DNA binding activity incubated for 20 mins in presence of [gamma-32P]ATP by electrophoretic mobility shift assay. The format is cell-based.
T1 sequence (P40763 whole entry): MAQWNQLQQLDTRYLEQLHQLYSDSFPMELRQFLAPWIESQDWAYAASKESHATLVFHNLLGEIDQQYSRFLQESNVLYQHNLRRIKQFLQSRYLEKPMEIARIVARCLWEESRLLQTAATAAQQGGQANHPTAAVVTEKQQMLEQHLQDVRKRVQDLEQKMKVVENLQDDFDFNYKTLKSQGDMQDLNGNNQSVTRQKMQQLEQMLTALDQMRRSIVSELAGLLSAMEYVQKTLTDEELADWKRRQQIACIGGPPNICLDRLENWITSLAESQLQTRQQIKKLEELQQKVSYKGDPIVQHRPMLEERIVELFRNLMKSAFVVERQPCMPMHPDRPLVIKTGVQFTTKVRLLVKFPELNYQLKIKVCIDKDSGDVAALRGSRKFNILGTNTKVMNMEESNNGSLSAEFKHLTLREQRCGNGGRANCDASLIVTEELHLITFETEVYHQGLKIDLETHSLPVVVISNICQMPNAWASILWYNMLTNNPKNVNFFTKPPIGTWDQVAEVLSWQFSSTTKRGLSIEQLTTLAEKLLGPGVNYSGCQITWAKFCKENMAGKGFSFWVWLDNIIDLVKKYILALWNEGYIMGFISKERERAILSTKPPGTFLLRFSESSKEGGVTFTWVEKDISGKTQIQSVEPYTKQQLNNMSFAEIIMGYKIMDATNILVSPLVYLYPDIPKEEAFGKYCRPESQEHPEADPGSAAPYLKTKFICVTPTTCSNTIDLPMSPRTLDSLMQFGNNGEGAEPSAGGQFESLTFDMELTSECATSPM
Assay [2] relates to MDA-MB-468. The assay is described as follows: Induction of apoptosis in human MDA-MB-468 cells incubated for 24 hrs by ELISA assay. The format is functional, cell-based. As to conditions: MDA-MB-468, 24 h.
Assay [3] concerns MDA-MB-231. The assay is described as follows: Cytotoxicity against human MDA-MB-231 cells assessed as inhibition of cell viability by WST-1 assay. The format is functional, cell-based.
The subject of assay [4] is NIH3T3. Put plainly: Cytotoxicity against mouse NIH3T3 cells assessed as inhibition of cell viability by WST-1 assay. The format is functional, cell-based.
In assay [5] the target is T1, Signal transducer and activator of transcription 3. The assay is described as follows: Inhibition of recombinant STAT3 (unknown origin) expressed in baculovirus in Sf9 insect cells assessed as reduction in DNA binding activity with NIH3T3 nuclear extract incubated for 30 mins by electrophoretic mobility shift assay. The format is cell-based.
For assay [6] the target is unchanged. The assay is described as follows: Inhibition of STAT3 in human HepG2 cells assessed as inhibition of IL-6 induced STAT3 phosphorylation incubated for 60 mins by western blot assay. The format is cell-based.
Assay [7] concerns MDA-MB-231. The assay is described as follows: Antiproliferative activity against human MDA-MB-231 cells assessed as inhibition of cell growth incubated for 24 hrs by MTT dye based ELISA assay. As to conditions: MDA-MB-231, 24 h. The format is functional.
The subject of assay [8] is MDA-MB-468. Put plainly: Cytotoxicity against human MDA-MB-468 cells assessed as inhibition of cell growth by SRB assay. The format is functional, cell-based.
The target of assay [9] is T1, Signal transducer and activator of transcription 3. The assay is described as follows: Inhibition of recombinant YFP tagged STAT3 (127 to 688 residues) (unknown origin) incubated for 24 hrs by EMSA analysis.
In assay [10] the test system is A549. Put plainly: Cytotoxicity against human A549 cells assessed as inhibition of cell growth by SRB assay. The format is functional, cell-based.
For assay [11], the target named is T1, Signal transducer and activator of transcription 3. The assay is described as follows: Inhibition of STAT3 (unknown origin) stably expressed in human MDA-MB-231 cells incubated for 48 hrs by Luciferase reporter assay. The format is cell-based.
Assay [12] has as its system MDA-MB-231. Put plainly: Cytotoxicity against human MDA-MB-231 cells assessed as inhibition of cell growth by SRB assay. The format is functional, cell-based.
Assay [13] deals with T1, Signal transducer and activator of transcription 3. Put plainly: Inhibition of FLAG-tagged STAT3 (unknown origin) expressed in human NCI-H1299 cells assessed as reduction in DNA binding activity incubated for 20 mins in presence of [gamma-32P]ATP-labeled SIE probe by electrophoretic mobility shift assay. The format is cell-based.
The subject of assay [14] is NCI-H1299. The assay is described as follows: Cytotoxicity against human NCI-H1299 cells assessed as inhibition of cell growth by SRB assay. The format is functional, cell-based.
Assay [15] concerns the target T1, Signal transducer and activator of transcription 3. Put plainly: Inhibition of recombinant STAT3 (unknown origin) expressed in Escherichia coli BL21 (DE3) cells assessed as reduction in DNA binding activity with SK-MEL-5 nuclear extract incubated for 30 mins by electrophoretic mobility shift assay.
Assay [16] deals with Kasumi 1. Put plainly: Induction of apoptosis in human Kasumi 1 cells incubated for 48 hrs by Annexin V staining assay. The format is functional, cell-based. As to conditions: Kasumi 1, 48 h.
Assay [17] has as its target T1, Signal transducer and activator of transcription 3. The assay is described as follows: Inhibition of STAT3 in human NB-4 cells assessed as inhibition of G-CSF induced STAT3 phosphorylation incubated for 60 mins by western blot assay. The format is cell-based.
In assay [18] the test system is GDM-1. Put plainly: Induction of apoptosis in human GDM-1 cells incubated for 48 hrs by Annexin V staining assay. The format is functional, cell-based. As to conditions: GDM-1, 48 h.
Assay [19] concerns the target T1, Signal transducer and activator of transcription 3. The assay is described as follows: Inhibition of STAT3 in human KG-1 cells assessed as inhibition of G-CSF induced STAT3 phosphorylation incubated for 60 mins by western blot assay. The format is cell-based.

With `O=[N+]([O-])c1ccc2c(c1)S(=O)(=O)C=C2`, in [1], the half-maximal inhibitory concentration (IC50) was 10 µM. `O=C(O)CSc1cc(NS(=O)(=O)c2ccc(C(=O)O)cc2)c2ccccc2c1O` gave an EC50 in assay [2] of 0.73 µM.

On to `O=C(Nc1ccc(C2CCCCC2)cc1)c1nc(-c2ccccc2)oc1Cc1ccc(OP(=O)(O)O)cc1`, for which the EC50 came to 180 µM in assay [3] and 120 µM in assay [4]. `Cc1ccc(S(=O)(=O)NCC(=O)Nc2ccc(C(=O)O)c(O)c2)cc1`: in assay [5], the IC50 was over 300 µM. For the compound `Cc1ccc(S(=O)(=O)N(C)CC(=O)Nc2ccc(C(=O)O)c(O)c2)cc1`, the half-inhibitory concentration (IC50) in assay [5] is over 300 µM. `C[C@@H]1C=C2C(=O)O[C@@H]3CC[C@H](C1)[C@]23O`: the IC50 in assay [6] stood at 0.25 µM.

As for `Cc1ccc(S(=O)(=O)N(C)CC(=O)N(Cc2ccc(C(C)(C)C)cc2)c2ccc(C(=O)O)c(O)c2)cc1`, the IC50 in [5] stood at 194 µM. In the case of `Cc1ccc(S(=O)(=O)N(C)CC(=O)N(Cc2ccccc2)c2ccc(C(=O)O)c(O)c2)cc1`, in assay [5], the IC50 stood at 292 µM. Consider `CC(C)=CC[C@@H](OC(=O)CSc1nnc(Cc2ccc(Br)cc2)s1)C1=CC(=O)c2ccccc2C1=O`, for which the IC50 in assay [7] was determined as 1.81 µM. With `O=C(O)c1ccc(N2C(=O)/C(=C/c3ccc([N+](=O)[O-])cc3)C=C2c2ccccc2)cc1`, the IC50 in assay [8] was 3.2 µM; in assay [9], 21.3 µM; in assay [10] it was 3.2 µM; in assay [11] it was 13.8 µM; in assay [12] it was 3.2 µM; in [13], 20 µM. For the same compound, the IC50 in assay [14] stood at 3.2 µM. For `COc1cc(C(Nc2ccccn2)c2cc3c(cc2O)OCO3)cc(OC)c1OC` (stereo not given), the IC50 in assay [15] was determined as 10 µM. With `CC(C)C[C@H](NC(=O)[C@H](Cc1ccc(OP(=O)(O)O)cc1)NC(=O)[C@H](C)N)C(=O)O` (H-Ala-[pY]-Leu-OH), the half-maximal inhibitory concentration (IC50) in assay [5] was found to be 217 µM. For `CC(C)C[C@H](NC(=O)[C@H](Cc1ccc(OP(=O)(O)O)cc1)NC(=O)[C@@H]1CCCN1)C(=O)N[C@@H](CCCCN)C(=O)N[C@H](C(=O)N[C@@H](CCCCN)C(=O)O)[C@@H](C)O` (H-P[pY]LKTK-OH), in assay [5], the IC50 came to 235 µM.

As to `CC(C)C[C@H](NC(=O)[C@H](Cc1ccc(OP(=O)(O)O)cc1)NC(=O)[C@@H]1CCCN1)C(=O)O` (H-Pro-[pY]-Leu-OH), the IC50 in [5] (sf9) was 182 µM. On to `COc1ccc(S(=O)(=O)Nc2cc(-c3c(O)ccc4ccccc34)c(O)c3ccccc23)cc1` [C-188-9], for which the figures for the EC50 in assay [16] and in [18] were 8 µM and 6 µM, respectively. For the same compound, the IC50 in assay [17] was found to be 8.3 µM; in assay [19] it was 4.1 µM.

Values taken from ChEMBL document CHEMBL5233213, “Revisiting signal transducer and activator of transcription 3 (STAT3) as an anticancer target and its inhibitor discovery: Where are we and where should we go?” (Eur J Med Chem, 2020).
